According to patent US10000486B2 (priority 2012, dated 2018):
Where a name gives a salt, the structure may show the parent alone.

Key:
VSVg pseudotyped virus = assay: organism not typed; type: cell-based; settings: read-out: Activity (EC50 in μM vs. pseudotyped virus) VSVg
[1] = test system: Lassa GP-pseudotyped-virus; assay: microbe, parasite or virus in culture; type: cell-based, Lassa fever virus; settings: for EC50: Human immunodeficiency virus 1, read-out: Activity (EC50 in μM vs. pseudotyped virus) Lassa
[2] = test system: Guanarito pseudotyped virus; assay: organism not typed; type: cell-based; settings: read-out: Activity (EC50 in μM vs. pseudotyped virus) Guanarito
[3] = test system: Machupo pseudotyped virus; assay: organism not typed; type: cell-based; settings: read-out: Activity (EC50 in μM vs. pseudotyped virus) Machupo
Sabiá pseudotyped virus = assay: organism not typed; type: cell-based; settings: read-out: Activity (EC50 in μM vs. pseudotyped virus) Sabiá
Junín pseudotyped virus = assay: organism not typed; type: cell-based; settings: read-out: Activity (EC50 in μM vs. pseudotyped virus) Junín

Work on `CCOc1ccc(-n2cnc3cc(CCc4ccc(CC)cc4)ccc32)cc1` [Compound 27, 1-(4-ethoxyphenyl)-5-[2-(4-ethylphenyl)-ethyl]benzimidazole] yielded an EC50 (VSVg pseudotyped virus) of over 50 µM, an EC50 [1] of under 1 µM and an EC50 [2] of under 1 µM. It also gave an EC50 [3] of under 1 µM, an EC50 (Sabiá pseudotyped virus) of under 1 µM and an EC50 (Junín pseudotyped virus) of under 1 µM.

`CCOc1ccc(-n2cnc3cc(SCc4ccc(CC)cc4)ccc32)cc1` [Compound 33, 1-(4-ethoxyphenyl)-5-[(4-ethylphenyl)-methylsulfanyl]benzimidazole] showed an EC50 (VSVg pseudotyped virus) of 10 to 50 µM, an EC50 [1] of under 1 µM and an EC50 [2] of under 1 µM. For the same compound, the EC50 [3] was under 1 µM, the EC50 (Sabiá pseudotyped virus) was under 1 µM and the EC50 (Junín pseudotyped virus) was under 1 µM.

Compound `CCc1ccc(/C=C\c2ccc3c(c2)ncn3-c2ccc(OC(C)(C)C)cc2)cc1` [Compound 15, 1-(4-tert-butoxyphenyl)-5-[(Z)-2-(4-ethylphenyl)-vinyl]benzimidazole] has an EC50 (VSVg pseudotyped virus) of 10 to 50 µM, an EC50 [1] of under 1 µM and an EC50 (Sabiá pseudotyped virus) of under 1 µM.

With `CCOc1ccc(-n2cnc3cc(/C=C\c4ccc(CC)cc4)ccc32)nc1` [Compound 19, 1-(5-ethoxy-2-pyridyl)-5-[(Z)-2-(4-ethylphenyl)vinyl]benzimidazol hydrochloride] the EC50 (VSVg pseudotyped virus) was 10 to 50 µM, the EC50 [1] was under 1 µM and the EC50 [3] was under 1 µM. For the same compound, the EC50 (Sabiá pseudotyped virus) was under 1 µM and the EC50 (Junín pseudotyped virus) was under 1 µM.

In the case of `CCOc1ccc(-n2cnc3cc(/C=C\c4ccc(CC)cc4)ccc32)cc1` [Compound 2, 1-(4-ethoxyphenyl)-5-[(Z)-2-(4-ethylphenyl)vinyl]benzimidazole], the EC50 (VSVg pseudotyped virus) is reported as 10 to 50 µM, the “EC50 value against Lassa GP-pseudotyped-virus” value [1] is reported as “submicromolar” and the EC50 [1] is reported as under 1 µM. It also gave an EC50 [2] of under 1 µM, an EC50 [3] of under 1 µM and an EC50 (Sabiá pseudotyped virus) of under 1 µM. For the same compound, the EC50 (Junín pseudotyped virus) was under 1 µM.

`CCOc1ccc(-n2cnc3cc(/C=C\c4ccc(C(C)(C)C)cc4)ccc32)nc1` [Compound 21, 5-[(Z)-2-(4-tert-butylphenyl)vinyl]-1-(5-ethoxy-2-pyridyl)benzimidazole hydrochloride] showed an EC50 (VSVg pseudotyped virus) of 10 to 50 µM, an EC50 [1] of under 1 µM and an EC50 [3] of under 1 µM. For the same compound, the EC50 (Sabiá pseudotyped virus) was under 1 µM and the EC50 (Junín pseudotyped virus) was under 1 µM.

Work on `CCOc1ccc(-n2cnc3cc(OCc4ccc(CC)cc4)cnc32)cc1` [Compound 31, 3-(4-ethoxyphenyl)-6-[(4-ethylphenyl)-methoxy]imidazo[4,5-b]pyridine] yielded an EC50 (VSVg pseudotyped virus) of 10 to 50 µM, an EC50 [1] of under 1 µM and an EC50 [2] of under 1 µM. For the same compound, the EC50 [3] was under 1 µM, the EC50 (Sabiá pseudotyped virus) was under 1 µM and the EC50 (Junín pseudotyped virus) was under 1 µM.

`COc1ccc(-n2cnc3cc(OCc4ccc(C(C)C)cc4)cnc32)cc1` [Compound 32, 6-[(4-isopropyl-phenyl)methoxy]-3-(4-methoxyphenyl)imidazo[4,5-b]pyridine] showed an EC50 (VSVg pseudotyped virus) of 10 to 50 µM, an EC50 [1] of under 1 µM and an EC50 [3] of under 1 µM. For the same compound, the EC50 (Sabiá pseudotyped virus) was under 1 µM and the EC50 (Junín pseudotyped virus) was under 1 µM.

`CC(C)(C)Oc1ccc(-n2cnc3cc(/C=C\c4ccc(C(C)(C)C)cc4)ccc32)cc1` [Compound 17, 1-(4-tert-butoxyphenyl)-5-[(Z)-2-(4-tert-butylphenyl)vinyl]benzimidazole] was tested, and the EC50 (VSVg pseudotyped virus) was 10 to 50 µM, the EC50 [1] was under 1 µM and the EC50 (Sabiá pseudotyped virus) was under 1 µM.

`COc1ccc(-n2cnc3cc(/C=C\c4ccc(C(C)C)cc4)cnc32)cc1` [Compound 24, 6-[(Z)-2-(4-isopropylphenyl)vinyl]-3-(4-methoxyphenyl)imidazo[4,5-b]pyridine] was tested, and the EC50 (VSVg pseudotyped virus) was 10 to 50 µM, the EC50 [1] was under 1 µM and the EC50 [3] was under 1 µM. It also gave an EC50 (Sabiá pseudotyped virus) of under 1 µM and an EC50 (Junín pseudotyped virus) of under 1 µM.

For `CCOc1ccc(-n2cnc3cc(/C=C\c4ccc(C(C)(C)O)cc4)ccc32)cc1` [Compound 61, 2-[4-[(Z)-2-[1-(4-ethoxyphenyl)benzimidazol-5-yl]vinyl]phenyl]propan-2-ol], the EC50 (VSVg pseudotyped virus) was 10 to 50 µM, the EC50 [1] was under 1 µM and the EC50 [3] was under 1 µM. The EC50 (Sabiá pseudotyped virus) was under 1 µM and the EC50 (Junín pseudotyped virus) was under 1 µM.

With `CCOc1ccc(-n2cnc3cc(/C=C\c4ccc(C(C)(C)C)cc4)ccc32)cc1` [Compound 5, 5-[(Z)-2-(4-tert-butylphenyl)vinyl]-1-(4-ethoxyphenyl)benzimidazole] the EC50 (VSVg pseudotyped virus) was 10 to 50 µM, the EC50 [1] was under 1 µM and the EC50 [3] was under 1 µM. For the same compound, the EC50 (Sabiá pseudotyped virus) was under 1 µM and the EC50 (Junín pseudotyped virus) was under 1 µM.

`CCc1ccc(/C=C\c2ccc3c(c2)ncn3-c2ccc(OC(C)C)cc2)cc1` [Compound 9, 5-[(Z)-2-(4-ethylphenyl)vinyl]-1-(4-isopropoxyphenyl)-benzimidazole] showed an EC50 (VSVg pseudotyped virus) of 10 to 50 µM, an EC50 [1] of under 1 µM and an EC50 [3] of under 1 µM. The EC50 (Sabiá pseudotyped virus) was under 1 µM and the EC50 (Junín pseudotyped virus) was under 1 µM.

Work on `CC(C)Oc1ccc(-n2cnc3cc(/C=C\c4ccc(C(C)(C)C)cc4)ccc32)cc1` [Compound 7, 5-[(Z)-2-(4-tert-butylphenyl)vinyl]-1-(4-isopropoxyphenyl)-benzimidazole] yielded an EC50 (VSVg pseudotyped virus) of 10 to 50 µM, an EC50 [1] of under 1 µM and an EC50 [3] of under 1 µM. The EC50 (Sabiá pseudotyped virus) was under 1 µM and the EC50 (Junín pseudotyped virus) was under 1 µM.

With `CCOc1ccc(-c2c[nH]c3cc(NCc4ccc(CC)cc4)ccc23)cc1` [Compound 64, 3-(4-ethoxyphenyl)-N-[(4-ethylphenyl)-methyl]-1H-indol-6-amine] the EC50 (VSVg pseudotyped virus) was 10 to 50 µM, the EC50 [1] was under 1 µM and the EC50 [3] was under 1 µM. For the same compound, the EC50 (Junín pseudotyped virus) was under 1 µM.

With `CC(C)Oc1ccc(-n2cnc3cc(/C=C\c4ccc(C(C)(C)F)cc4)ccc32)cc1` [Compound 39, 5-[(Z)-2-[4-(1-fluoro-1-methyl-ethyl)phenyl]vinyl]-1-(4-isopropoxy-phenyl)benzimidazole] the EC50 (VSVg pseudotyped virus) was 1 to 10 µM, the EC50 [1] was under 1 µM and the EC50 [3] was under 1 µM. It also gave an EC50 (Junín pseudotyped virus) of under 1 µM.

With `CC(C)Oc1ccc(-n2cnc3cc(/C=C\c4ccc(C(=O)O)cc4)ccc32)cc1` [Compound 45, 4-[(Z)-2-[1-(4-isopropoxyphenyl)benzimidazol-5-yl]vinyl]benzoic acid] the EC50 (VSVg pseudotyped virus) was over 50 µM, the EC50 [1] was 10 to 50 µM and the EC50 [3] was under 1 µM. For the same compound, the EC50 (Sabiá pseudotyped virus) was 1 to 10 µM and the EC50 (Junín pseudotyped virus) was under 1 µM.

`CCOc1ccc(-n2cnc3cc(/C=C/c4ccc(OC(F)(F)F)cc4)ccc32)cc1` [Compound 10, 1-(4-ethoxyphenyl)-5-[(E)-2-[4-(trifluoromethoxy)phenyl]vinyl]benzimidazole] was tested, and the EC50 (VSVg pseudotyped virus) was over 50 µM, the EC50 [1] was under 1 µM and the EC50 [3] was 1 to 10 µM. The EC50 (Junín pseudotyped virus) was under 1 µM.

`COC(=O)c1ccc(/C=C\c2ccc3c(c2)ncn3-c2ccc(OC(C)C)cc2)cc1` [Compound 37, methyl 4-[(Z)-2-[1-(4-isopropoxyphenyl)-benzimidazol-5-yl]vinyl]benzoate] showed an EC50 (VSVg pseudotyped virus) of 10 to 50 µM, an EC50 [1] of under 1 µM and an EC50 [3] of under 1 µM. The EC50 (Junín pseudotyped virus) was under 1 µM.

Work on `CCC(C)(O)c1ccc(/C=C\c2ccc3c(c2)ncn3-c2ccc(OC(C)C)cc2)cc1` (stereo not drawn) [Compound 50, 2-[4-[(Z)-2-[1-(4-isopropoxyphenyl)benzimidazol-5-yl]vinyl]phenyl]butan-2-ol] yielded an EC50 (VSVg pseudotyped virus) of 1 to 10 µM, an EC50 [1] of under 1 µM and an EC50 [3] of under 1 µM. For the same compound, the EC50 (Junín pseudotyped virus) was under 1 µM.
